From patent publication US9975880B2, “Imidazolidine-2,4-dione dervatives” (IPSEN PHARMA S.A.S., priority 2013, dated 2018)
In brackets after ≈: the same amount, converted by molar mass. Where two headings read alike, the source gives them in different places.

Experiments:
LNCaP cells = experiment: Anti-proliferative activity on LNCaP in complete medium; assay type: cell-based; details: Homo sapiens, 144 h
Experimental: The anti-proliferative activity of the compounds of the present invention is determined on LNCaP in complete medium by applying the following experimental procedure:
The LNCaP cell type (ATCC, 1740) originates from a prostate carcinoma. This line expresses the androgen receptor and is hormone-dependent.
Maintenance of the LNCaP line is carried out in complete culture medium: RPMI, 10% of fetal calf serum, 2 mM glutamine, 100 U/ml penicillin, 0.1 mg/ml of streptomycin and 0.01M HEPES, 1 mM sodium pyruvate, […]. • Seeding the plates:
The LNCaP line is seeded at 20,000 cells/well in 90 μl of complete medium in 96-well plates coated with poly-D-lysine (Biocoat, Costar). • Treatment of the cells: 24 h after the seeding, the cells are treated with 10 μl/well of compound diluted in the culture medium. The concentrations used are the following: 1 nM/10/30/100/300/1000/3000/10,000 nM. The cells are incubated for 144 h at 37° C., 5% CO2. • Reading: After incubation for 6 days, cell proliferation was determined by Cell-Titer-Glow (CTG) Luminescent Cell Viability Assay. • Results: The experiments are carried out in duplicate and the best compounds are tested twice. […] Anti-Proliferative Activity on DU145 in Complete Medium

DU145 cells = experiment: Anti-proliferative activity on DU145 in complete medium; assay type: cell-based; details: DU145 (no androgen receptor), 144 h, up to 10,000 nM, Cell-Titer-Glow
Experimental: It is used to evaluate the selectivity of the compounds for androgen receptor expressing cells. No activity of the compounds is expected. • The cells of the DU145 line (ATCC HTB-81) are seeded at 800 cells/well in 90 μl of complete medium in 96-well plates coated with poly-D-lysine (Biocoat, Costar). • Treatment of the cells: 24 h after the seeding, the cells are treated with 10 μl/well of compound diluted in the culture medium. The concentrations used are the following: 1 nM/10/30/100/300/1000/3000/10,000 nM. The cells are incubated for 144 h at 37° C., 5% CO2. • Reading: After incubation for 6 days, cell proliferation was determined by Cell-Titer-Glow (CTG) Luminescent Cell Viability Assay • Results: The experiments are carried out in duplicate and the best compounds are tested twice. A concentration value inhibiting the cell proliferation by 50% (IC50) is calculated.

Evaluation of solubility = assay type: physicochemical; details: aqueous buffer, kinetic from dmso stock; 100 mM potassium phosphate buffer pH 7.4, 0.1% DMSO, target 100 μM, 1 hour room temperature, LC-MS/MS
Experimental: Test compounds were prepared as stock solutions at 100 mM in DMSO. The stock solutions were diluted, in duplicate, into 100 mM potassium phosphate buffer (pH 7.4) to a target concentration of 100 μM with a final DMSO concentration of 0.1%. The solutions were shaken at 1000 rpm for 1 hour at room temperature followed by centrifugation for 10 minutes at 1200 rpm to precipitate un-dissolved particles. The supernatants were transferred to new tubes and the samples were further prepared as follows: • Undiluted: 5 μL of supernatant to 95 μL of ACN containing internal standard (IS) • 1:10 diluted: 10 μL of the supernatant into 90 μL K-buffer, mix, then transfer 5 μL of 1:10 diluted samples to 95 μL ACN containing IS • 1:100 diluted: 10 μL of the supernatant into 990 μL K-buffer, mix, then transfer 5 μL of 1:100 diluted samples to 95 μL of ACN containing IS
Samples (undiluted, 1:10 diluted, and 1:100 diluted) along with the standards were analyzed by LC-MS/MS.

[1] = complete medium, 144 h incubation, Cell-Titer-Glow, read-out: IC50 on the LNCaP cells in culture (inhibition of cell proliferation by 50%)
[2] = read-out: IC50 on the LNCaP cells in culture (inhibition of cell proliferation by 50%), LNCaP, complete medium, 144 h incubation, Cell-Titer-Glow

SMILES | IC50 (LNCaP cells; [1]) [nM] | IC50 on DU145 cells (anti-proliferative effect) (DU145 cells) | solubility at 1 h (Evaluation of solubility) [µM] | IC50 (LNCaP cells; [2]) [nM]
CC1(C)C(=O)N(c2ccc(C#N)c(C(F)(F)F)c2)C(=O)N1C/C=C\Cn1cc(-c2ccc(C#N)c(C(F)(F)F)c2)nn1 [Example 22, (Z)-4-(3-(4-(4-(4-cyano-3-(trifluoromethyl)phenyl)-1H-1,2,3-triazol-1-yl)but-2-en-1-yl)-4,4-dimethyl-2,5-dioxoimidazolidin-1-yl)-2-(trifluoromethyl)benzonitrile] | < 1500 |  |  | 
CC1(C)C(=O)N(c2ccc(S(C)(=O)=O)c(C(F)(F)F)c2)C(=O)N1C/C=C\CN1CC(c2ccc(S(C)(=O)=O)c(C(F)(F)F)c2)CC1=O (stereo not drawn) [Example 15, (Z)-5,5-dimethyl-3-(4-(methylsulfonyl)-3-(trifluoromethyl)phenyl)-1-(4-(4-(4-(methylsulfonyl)-3-(trifluoromethyl)phenyl)-2-oxopyrrolidin-1-yl)but-2-en-1-yl)imidazolidine-2,4-dione] | < 1500 | no measurable IC50 | 1.9 (≈ 1.34 µg/mL) | 
CC1(C)CN(c2ccc(C#N)c(C(F)(F)F)c2)C(=O)N1C/C=C\CN1C(=O)N(c2ccc(S(C)(=O)=O)c(C(F)(F)F)c2)C(=O)C1(C)C [Example 9, (Z)-4-(3-(4-(5,5-dimethyl-3-(4-(methylsulfonyl)-3-(trifluoromethyl)phenyl)-2,4-dioxoimidazolidin-1-yl)but-2-en-1-yl)-4,4-dimethyl-2-oxoimidazolidin-1-yl)-2-(trifluoromethyl)benzonitrile] |  | no measurable IC50 |  | < 1500
CC1(C)CN(c2ccc(S(C)(=O)=O)c(C(F)(F)F)c2)C(=O)N1C/C=C\CN1C(=O)N(c2ccc(S(C)(=O)=O)c(Cl)c2)C(=O)C1(C)C [Example 8, (Z)-3-(3-chloro-4-(methylsulfonyl)phenyl)-1-(4-(5,5-dimethyl-3-(4-(methylsulfonyl)-3-(trifluoromethyl)phenyl)-2-oxoimidazolidin-1-yl)but-2-en-1-yl)-5,5-dimethylimidazolidine-2,4-dione] |  | no measurable IC50 |  | 
CC1(C)C(=O)N(c2ccc(C#N)c(C(F)(F)F)c2)C(=O)N1C/C=C\Cn1cc(-c2ccc(C#N)c(C(F)(F)F)c2)cn1 [Example 1, (Z)-4-(3-(4-(4-(4-cyano-3-(trifluoromethyl)phenyl)-1H-pyrazol-1-yl)but-2-en-1-yl)-4,4-dimethyl-2,5-dioxoimidazolidin-1-yl)-2-(trifluoromethyl)benzonitrile] |  | no measurable IC50 |  | 
CC1(C)C(=O)N(c2ccc(C#N)c(C(F)(F)F)c2)C(=O)N1C/C=C\CN1CCN(c2ccc(S(C)(=O)=O)c(Cl)c2)S1(=O)=O [Example 17, (Z)-4-(3-(4-(5-(3-chloro-4-(methylsulfonyl)phenyl)-1,1-dioxido-1,2,5-thiadiazolidin-2-yl)but-2-en-1-yl)-4,4-dimethyl-2,5-dioxoimidazolidin-1-yl)-2-(trifluoromethyl)benzonitrile] |  | no measurable IC50 | 1.97 (≈ 1.3 µg/mL) | < 1500
CC1(C)C(=O)N(c2ccc(C#N)c(C(F)(F)F)c2)C(=O)N1C/C=C\Cn1cnc(-c2ccc(S(C)(=O)=O)c(C(F)(F)F)c2)c1 [Example 18, (Z)-4-(4,4-dimethyl-3-(4-(4-(4-(methylsulfonyl)-3-(trifluoromethyl)phenyl)-1H-imidazol-1-yl)but-2-en-1-yl)-2,5-dioxoimidazolidin-1-yl)-2-(trifluoromethyl)benzonitrile] | < 1500 |  |  | 
CC1(C)C(=O)N(c2cnc(C#N)c(C(F)(F)F)c2)C(=O)N1C/C=C\Cn1cc(-c2ccc(S(C)(=O)=O)c(C(F)(F)F)c2)cn1 [Example 4, (Z)-5-(4,4-dimethyl-3-(4-(4-(4-(methylsulfonyl)-3-(trifluoromethyl)phenyl)-1H-pyrazol-1-yl)but-2-en-1-yl)-2,5-dioxoimidazolidin-1-yl)-3-(trifluoromethyl)picolinonitrile] |  | no measurable IC50 | 1.7 (≈ 1.09 µg/mL) | 
CC1(C)C(=O)N(c2ccc(C#N)c(C(F)(F)F)c2)C(=O)N1C/C=C\CN1CCN(c2ccc(S(C)(=O)=O)c(Cl)c2)C1=O [Example 11, (Z)-4-(3-(4-(3-(3-chloro-4-(methylsulfonyl)phenyl)-2-oxoimidazolidin-1-yl)but-2-en-1-yl)-4,4-dimethyl-2,5-dioxoimidazolidin-1-yl)-2-(trifluoromethyl)benzonitrile] |  | no measurable IC50 | 0.34 (≈ 0.212 µg/mL) | < 1500
CC1(C)C(=O)N(c2ccc(S(C)(=O)=O)c(Cl)c2)C(=O)N1C/C=C\CN1CCC(O)(c2ccc(C#N)c(C(F)(F)F)c2)C1 (stereo not drawn) [Example 16, (Z)-4-(1-(4-(3-(3-chloro-4-(methylsulfonyl)phenyl)-5,5-dimethyl-2,4-dioxoimidazolidin-1-yl)but-2-en-1-yl)-3-hydroxypyrrolidin-3-yl)-2-(trifluoromethyl)benzonitrile] | < 1500 | no measurable IC50 |  | 
Cc1nn(C/C=C\CN2C(=O)N(c3ccc(C#N)c(C(F)(F)F)c3)C(=O)C2(C)C)c(C)c1-c1ccc(S(C)(=O)=O)c(C(F)(F)F)c1 [Example 6, (Z)-4-(3-(4-(3,5-dimethyl-4-(4-(methylsulfonyl)-3-(trifluoromethyl)phenyl)-1H-pyrazol-1-yl)but-2-en-1-yl)-4,4-dimethyl-2,5-dioxoimidazolidin-1-yl)-2-(trifluoromethyl)benzonitrile] |  | no measurable IC50 | 4.38 (≈ 2.92 µg/mL) | 
CC1(C)CN(c2ccc(S(C)(=O)=O)c(C(F)(F)F)c2)C(=O)N1C/C=C\CN1C(=O)N(c2ccc(C#N)c(C(F)(F)F)c2)C(=O)C1(C)C [Example 7, (Z)-4-(3-(4-(5,5-dimethyl-3-(4-(methylsulfonyl)-3-(trifluoromethyl)phenyl)-2-oxoimidazolidin-1-yl)but-2-en-1-yl)-4,4-dimethyl-2,5-dioxoimidazolidin-1-yl)-2-(trifluoromethyl)benzonitrile] | < 1500 | no measurable IC50 |  | 
CC1(C)C(=O)N(c2cnc(C#N)c(C(F)(F)F)c2)C(=O)N1C/C=C\Cn1cc(-c2ccc(S(C)(=O)=O)c(Cl)c2)cn1 [Example 5, (Z)-5-(3-(4-(4-(3-chloro-4-(methylsulfonyl)phenyl)-1H-pyrazol-1-yl)but-2-en-1-yl)-4,4-dimethyl-2,5-dioxoimidazolidin-1-yl)-3-(trifluoromethyl)picolinonitrile] |  | no measurable IC50 | 0.65 (≈ 0.395 µg/mL) | 
CC1(C)C(=O)N(c2ccc(S(C)(=O)=O)c(C(F)(F)F)c2)C(=O)N1C/C=C\Cn1cc(-c2ccc(C#N)c(C(F)(F)F)c2)cn1 [Example 2, (Z)-4-(1-(4-(5,5-dimethyl-3-(4-(methylsulfonyl)-3-(trifluoromethyl)phenyl)-2,4-dioxoimidazolidin-1-yl)but-2-en-1-yl)-1H-pyrazol-4-yl)-2-(trifluoromethyl)benzonitrile] |  | no measurable IC50 |  | 
CC1(C)C(=O)N(c2ccc(C#N)c(C(F)(F)F)c2)C(=O)N1C/C=C\Cn1cc(-c2ccccc2)nn1 [Example 19, (Z)-4-(4,4-dimethyl-2,5-dioxo-3-(4-(4-phenyl-1H-1,2,3-triazol-1-yl)but-2-en-1-yl)imidazolidin-1-yl)-2-(trifluoromethyl)benzonitrile] | < 1500 |  |  | 
